In US9486457B2, “Use of cinnabarinic acid as a modulator of immune responses in autoimmune disorders” (The Regents of the University of California, priority 2010, dated 2016):
Entries after “also recorded” stand apart in the source; their conditions may differ.

Legend:
AHR = molecular target: T1, AHR (Mus musculus, UniProt P30561); experiment: AHR-responsive (dioxin responsive element) GFP reporter assay in H1G1 mouse hepatoma cells; assay type: cell-based; conditions: for AHR agonist activity (activation of AHR-responsive reporter): agonist mode; for AHR antagonist activity (block of AHR activation by TCDD): antagonist mode, co-treatment with TCDD, H1G1 cells
T1 construct: murine hepatoma cell line stably transfected with an AhR-responsive (AhR-eGFP) reporter construct; endogenous in cells
T1 sequence (P30561 10-848): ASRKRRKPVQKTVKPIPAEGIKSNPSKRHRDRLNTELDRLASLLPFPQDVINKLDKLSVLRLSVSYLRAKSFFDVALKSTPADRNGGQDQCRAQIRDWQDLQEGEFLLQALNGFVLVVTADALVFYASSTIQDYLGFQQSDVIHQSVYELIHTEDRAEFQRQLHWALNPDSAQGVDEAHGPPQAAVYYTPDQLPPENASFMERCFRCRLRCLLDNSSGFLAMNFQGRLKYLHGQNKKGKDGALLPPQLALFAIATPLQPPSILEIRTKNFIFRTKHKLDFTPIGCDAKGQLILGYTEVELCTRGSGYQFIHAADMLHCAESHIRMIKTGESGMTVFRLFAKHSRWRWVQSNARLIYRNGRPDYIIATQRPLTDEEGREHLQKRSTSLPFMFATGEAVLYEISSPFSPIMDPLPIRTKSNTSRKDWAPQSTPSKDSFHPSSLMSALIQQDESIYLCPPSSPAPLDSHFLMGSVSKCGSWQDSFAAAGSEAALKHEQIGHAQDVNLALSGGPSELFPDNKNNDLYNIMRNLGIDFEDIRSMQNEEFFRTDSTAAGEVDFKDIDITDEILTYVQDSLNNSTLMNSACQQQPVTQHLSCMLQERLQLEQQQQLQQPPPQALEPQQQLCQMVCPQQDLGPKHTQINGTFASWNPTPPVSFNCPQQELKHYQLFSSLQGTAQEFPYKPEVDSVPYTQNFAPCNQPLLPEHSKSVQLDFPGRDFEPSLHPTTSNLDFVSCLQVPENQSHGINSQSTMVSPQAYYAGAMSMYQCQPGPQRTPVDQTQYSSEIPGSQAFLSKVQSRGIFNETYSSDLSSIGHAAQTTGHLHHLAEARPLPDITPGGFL
Text: (§1) We performed a precursory screen of all tryptophan metabolites including both 3-HKA and 3-HAA to bind to and act as agonists or antagonists of the AHR using two separate assays. First we examined the ability of 3-HKyn, 3-HAA, and PA to displace TCDD binding to the human AHR protein in vitro (20). […] We also measured AHR activation using a mouse hepatoma cell line (H1G1) that stably expresses a green fluorescent protein (GFP) reporter construct downstream of a series of dioxin responsive elements (FIG. 7A) (21).

human naïve CD4+ T cells = experiment: IL-22 induction in cultured human naïve CD4+ T cells stimulated with anti-CD3/anti-CD28 under Th17 polarizing conditions; assay type: cell-based; conditions: CA 25 μM in FIG. 8D
Text: This is AHR dependent as inclusion of an AHR antagonist fully abrogated effect.
FIG. 8: CA is an endogenous AhR agonist generated by oxidative dimerization of 3-HAA. (A) An alternative pathway of 3-HAA metabolism leads to the generation of CA either by non-enzymatic (oxidation) or enzymatic (laccase, ceruloplasmin) processes. CA is structurally similar to the synthetic AhR ligand TCDD. […] Data are representative of three similar experiments.

[1] = system: stimulated human CD4+ T cells; experiment: IL-22 expression by CD4+ T cells in stimulated human PBMCs / T cells; assay type: cell-based; conditions: for IL-22 expression by CD4+ T cells (Th22 differentiation): stimulated human PBMCs / T cells, 100 μM for 3-HKyn and 3-HAA in FIG. 6A
Text: FIG. 6: 3-HKyn and 3-HAA promote IL-22 expression by stimulated human CD4+ T cells. […] (C) IL-22 induction by 3-HAA is blocked by inhibition of the AhR pathway.
This is highlighted by the observation that AHR−/− mice retain the ability to generate some Th17 cells, but are incapable of generating cells that express IL-22 (16-18). […] To screen for the ability of tryptophan metabolites generated downstream of IDO to activate the AHR, we stimulated human T cells in vitro in the presence of different tryptophan metabolites (3-Hydroxykynurenine (3-HKA), 3-Hydroxyanthranilic Acid (3-HAA), Picolinic Acid (PA), and Quinolinic Acid (QA)) to assess whether any promoted the expansion of CD4+ T cells secreting IL-22. […] To determine whether the induction of IL-22 within this population was dependent upon AHR activation, we next stimulated human T cells in the presence or absence of a potent AHR antagonist (CH-223191) and monitored the induction of IL-22.

human AHR protein = molecular target: T2, human AHR protein (Homo sapiens, UniProt P35869); experiment: Displacement of TCDD binding to in vitro translated human AHR protein; conditions: cell-free
T2 sequence (P35869 11-848): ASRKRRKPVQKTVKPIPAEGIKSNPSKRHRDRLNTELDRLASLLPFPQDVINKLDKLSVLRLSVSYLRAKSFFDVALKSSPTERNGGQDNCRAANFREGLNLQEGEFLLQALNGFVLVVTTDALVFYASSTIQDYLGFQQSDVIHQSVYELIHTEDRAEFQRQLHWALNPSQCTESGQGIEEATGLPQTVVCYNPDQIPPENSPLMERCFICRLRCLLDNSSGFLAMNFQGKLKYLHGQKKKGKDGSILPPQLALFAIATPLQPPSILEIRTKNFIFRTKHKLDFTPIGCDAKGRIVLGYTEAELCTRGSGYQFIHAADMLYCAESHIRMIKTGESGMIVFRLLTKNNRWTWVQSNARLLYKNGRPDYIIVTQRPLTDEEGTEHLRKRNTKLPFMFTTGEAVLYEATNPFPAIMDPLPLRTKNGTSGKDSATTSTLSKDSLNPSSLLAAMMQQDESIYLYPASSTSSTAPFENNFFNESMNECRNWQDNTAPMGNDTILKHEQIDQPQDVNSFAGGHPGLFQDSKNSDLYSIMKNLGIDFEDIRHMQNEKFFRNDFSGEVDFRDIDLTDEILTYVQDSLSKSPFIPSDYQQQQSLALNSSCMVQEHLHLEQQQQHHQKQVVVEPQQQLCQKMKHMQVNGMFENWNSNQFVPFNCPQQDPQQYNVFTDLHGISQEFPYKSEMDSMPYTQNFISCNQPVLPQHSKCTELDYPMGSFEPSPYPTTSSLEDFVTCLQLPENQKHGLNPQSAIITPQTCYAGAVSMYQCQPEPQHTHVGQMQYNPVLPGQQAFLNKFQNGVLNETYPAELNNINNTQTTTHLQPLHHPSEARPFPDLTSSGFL
Text: as §1

[2] = system: naïve (CD45RA+CCR7+CD95−CD25−) CD4+ T cells; experiment: Foxp3 induction in stimulated naïve CD4+ T cells; assay type: cell-based, human
Text: FIG. 9: The synthetic 3-HAA analogue 3,4 DAA (Tranilast) is an AhR antagonist and promotes the induction of Foxp3 by stimulated CD4+ T cells. (A) 3,4 DAA shares some structural similarities to 3-HAA (highlighted region).
Therefore we asked whether T cells treated with 3,4 DAA might be prompted to differentiate into Treg cells through upregulation of the transcription factor Foxp3 (26).

[3] = system: stimulated human CD4+ T cells; conditions: literature (ref 19); cited from earlier work
[4] = system: experimental allergic encephalomyelitis (EAE); conditions: literature reports (refs 15, 25 as cited in text); cited from earlier work

Structure (SMILES): Nc1c(O)cccc1C(=O)O [3-HAA, 3-Hydroxyanthranilic Acid]
- AHR agonist activity (activation of AHR-responsive reporter) (AHR): modest increase in AHR activity using 3-HAA as an agonist, this failed to reach significance; also recorded: minimal activation of the AhR; also recorded: no activity in short-term assays
- IL-22 induction (human naïve CD4+ T cells): only had minimal effects
- expansion of Th22 cells ([1]; different donors): ≥ 2 fold
- IL-22 expression by CD4+ T cells (Th22 differentiation) [1]: able to promote the differentiation of Th22 cells; also recorded: leads to the expansion of a population of cells expression the cytokine IL-22; also recorded: promotes IL-22 expression in dose-dependent manner
- displacement / inhibition of TCDD binding to human AHR (human AHR protein): modest binding of 3-HAA only at very high concentrations
- Foxp3 expression (frequency of CD4+Foxp3+ T cells) ([2]; stimulated naïve CD4+ T cells in vitro): promotes Foxp3 upregulation but to a lesser extent

Structure (SMILES): Nc1c(O)cccc1C(=O)CC(N)C(=O)O (stereo not shown) [3-HKyn, 3-Hydroxykynurenine]
- AHR agonist activity (activation of AHR-responsive reporter) (AHR): none of the other metabolites (3-HKyn, PA, QA) were found to have any activity as agonists or antagonists
- AHR antagonist activity (block of AHR activation by TCDD) (AHR): none of the other metabolites (3-HKyn, PA, QA) were found to have any activity as agonists or antagonists
- IL-22 expression by CD4+ T cells (Th22 differentiation) [1]: leads to the expansion of a population of cells expression the cytokine IL-22
- IL-22 expression by CD4+ T cells (Th22 differentiation) ([1]; listed as 3-HKA): able to promote the differentiation of Th22 cells
- displacement / inhibition of TCDD binding to human AHR (human AHR protein): unable to measure any significant displacement

Structure (SMILES): Nc1c(C(=O)O)ccc(F)c1O [4-F-3-HAA, 4-fluoro-3-hydroxythranilic acid]
- effect of HAAO inhibition on the ability of 3-HAA to induce IL-22 ([1]; in the presence of different concentrations of 3-HAA): stark increase in the ability of 3-HAA to induce IL-22

Structure (SMILES): Cc1ccccc1N=Nc1ccc(NC(=O)c2ccnn2C)c(C)c1 [CH-223191]
- AHR antagonist activity (block of AHR activation by TCDD) (AHR): potent antagonist
- AHR antagonist activity (block of AHR activation by TCDD) (AHR; listed as CH223191): positive control
- block of IL-22 induction by 3-HAA ([1]; AHR antagonist added with 3-HAA): significantly abolish IL-22 induction by 3-HAA

Structure (SMILES): O=Cc1c2c(cc3c1=Nc1ccccc1-3)=Nc1ccccc1-2 [FICZ, 6-formylindolo[3,2-b]carbazole]
- frequency of CD4+ T cells that produce IL-22 (Th22), as previously reported [3]: promoted a significant increase in the frequency of CD4+ T cells that produced IL-22
- effect on EAE as previously reported [4]: increased disease severity

Structure (SMILES): O=C(O)c1ccccn1 [PA, Picolinic Acid]
- AHR agonist activity (activation of AHR-responsive reporter) (AHR): none of the other metabolites (3-HKyn, PA, QA) were found to have any activity as agonists or antagonists
- AHR antagonist activity (block of AHR activation by TCDD) (AHR): none of the other metabolites (3-HKyn, PA, QA) were found to have any activity as agonists or antagonists
- displacement / inhibition of TCDD binding to human AHR (human AHR protein): unable to measure any significant displacement

Structure (SMILES): O=C(O)c1cccnc1C(=O)O [QA, Quinolinic Acid]
- AHR agonist activity (activation of AHR-responsive reporter) (AHR): none of the other metabolites (3-HKyn, PA, QA) were found to have any activity as agonists or antagonists
- AHR antagonist activity (block of AHR activation by TCDD) (AHR): none of the other metabolites (3-HKyn, PA, QA) were found to have any activity as agonists or antagonists

Structure (SMILES): NC(=O)c1ccc(-c2nc(-c3ccc4c(c3)OCO4)c(-c3ccccn3)[nH]2)cc1 [SB-431542]
- reversal of Foxp3 upregulation by 3,4 DAA and 3-HAA ([2]; TGFβ signaling inhibitor added): reversed the ability of 3,4 DAA and 3-HAA to upregulate Foxp3

Structure (SMILES): Clc1cc2c(cc1Cl)Oc1cc(Cl)c(Cl)cc1O2 [TCDD, 2,3,7,8-tetrachlorodibenzodioxin]
- effect on EAE as previously reported [4]: protective

Structure (SMILES): NCCc1c[nH]c2ccccc12 [Tryptamine, tryptamine]
- AHR agonist activity (activation of AHR-responsive reporter) (AHR): positive control
